PubChem BioAssay AID2060900 (Molecular Pharmacology Branch, DTP, NCI, 2025)

System: 521955-158-R2-J5-PDC complex spheroids, viability
Assay: Anticancer human tumor 521955-158-R2-J5-PDC patient-derived pancreatic carcinoma cell line growth inhibition [RAS]
Settings: for IC50: curve of first compound; for viability, T/C: stronger effect = lower value; active = viability on the fitted dose curve at most 10% of control; inactive = the rest
In short: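 Tumour cells grown as complex spheroids with HUVEC endothelial cells and mesenchymal stem cells, treated with RAS pathway inhibitor combinations. Each agent spans half-log steps from near clinical Cmax, or 10 microM where Cmax is unknown.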

[1] = second compound 0.000949 µM, first compound 0.0316 µM
[2] = second compound 0.000949 µM, first compound 0.1 µM
[3] = second compound 0.000949 µM, first compound 0.316 µM
[4] = second compound 0.000949 µM, first compound 1 µM
[5] = second compound 0.003 µM, first compound 0.0316 µM
[6] = second compound 0.003 µM, first compound 0.1 µM
[7] = second compound 0.003 µM, first compound 0.316 µM
[8] = second compound 0.003 µM, first compound 1 µM
[9] = second compound 0.00949 µM, first compound 0.0316 µM
[10] = second compound 0.00949 µM, first compound 0.1 µM
[11] = second compound 0.00949 µM, first compound 0.316 µM
[12] = second compound 0.00949 µM, first compound 1 µM
[13] = second compound 0.03 µM, first compound 0.0316 µM
[14] = second compound 0.03 µM, first compound 0.1 µM
[15] = second compound 0.03 µM, first compound 0.316 µM
[16] = second compound 0.03 µM, first compound 1 µM
[17] = second compound 0.0949 µM, first compound 0.0316 µM
[18] = second compound 0.0949 µM, first compound 0.1 µM
[19] = second compound 0.0949 µM, first compound 0.316 µM
[20] = second compound 0.0949 µM, first compound 1 µM
[21] = second compound 0.3 µM, first compound 0.0316 µM
[22] = second compound 0.3 µM, first compound 0.1 µM
[23] = second compound 0.3 µM, first compound 0.316 µM
[24] = second compound 0.3 µM, first compound 1 µM
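Also: compound exposure lasted seven days before the viability read.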
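For viability, T/C in this document: spheroids also contain HUVEC endothelial cells and mesenchymal stem cells as stroma.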

O=C(c1ccc(F)c(F)c1Nc1ccc(I)cc1F)N1CC(O)([C@@H]2CCCCN2)C1 + CCn1c(-c2cccnc2C(C)OC)c2c3cc(ccc31)N1CCOC(CC(NC(=O)C(C(C)C)N(C)C(=O)C3(F)CCN(C(=O)C#CC(C)(C)N(C)C)CC3)C(=O)N3CCCC(N3)C(=O)OCC(C)(C)C2)C1
17.8 nM: IC50 (second compound 0.0949 µM)
17.3 nM: IC50 (second compound 0.000949 µM)
41.3 nM: IC50 (second compound 0.00949 µM)
6.72 nM: IC50 (second compound 0.3 µM)
inactive: viability, T/C (second compound 0.000949 µM, first compound 0.00316 µM) 83% | viability, T/C (second compound 0.000949 µM, first compound 0.01 µM) 53.3% | viability, T/C [1] 43.4% | viability, T/C [2] 36.1% | viability, T/C [3] 32.2% | viability, T/C [4] 22% | viability, T/C (second compound 0.003 µM, first compound 0.00316 µM) 77.6% | viability, T/C (second compound 0.003 µM, first compound 0.01 µM) 62.5% | viability, T/C [5] 45.2% | viability, T/C [6] 36.1% | viability, T/C [7] 33% | viability, T/C [8] 18.6% | viability, T/C (second compound 0.00949 µM, first compound 0.00316 µM) 92.2% | viability, T/C (second compound 0.00949 µM, first compound 0.01 µM) 60.9% | viability, T/C [9] 58.5% | viability, T/C [10] 42.2% | viability, T/C [11] 28.3% | viability, T/C [12] 24.2% | viability, T/C (second compound 0.03 µM, first compound 0.00316 µM) 80% | viability, T/C (second compound 0.03 µM, first compound 0.01 µM) 59.6% | viability, T/C [13] 51.6% | viability, T/C [14] 39.2% | viability, T/C [15] 29% | viability, T/C [16] 22.2% | viability, T/C (second compound 0.0949 µM, first compound 0.00316 µM) 64.2% | viability, T/C (second compound 0.0949 µM, first compound 0.01 µM) 56.8% | viability, T/C [17] 43.2% | viability, T/C [18] 36.4% | viability, T/C [19] 32.4% | viability, T/C [20] 23.9% | viability, T/C (second compound 0.3 µM, first compound 0.00316 µM) 54.2% | viability, T/C (second compound 0.3 µM, first compound 0.01 µM) 46.5% | viability, T/C [21] 42.2% | viability, T/C [22] 37% | viability, T/C [23] 31.4% | viability, T/C [24] 17.8%
31.3 nM: IC50 (second compound 0.03 µM)
27.1 nM: IC50 (second compound 0.003 µM)

C[C@@H](NC(=O)c1ncnc(N)c1Cl)c1ncc(C(=O)Nc2cc(C(F)(F)F)c(Cl)cn2)s1 + CCn1c(-c2cccnc2C(C)OC)c2c3cc(ccc31)N1CCOC(CC(NC(=O)C(C(C)C)N(C)C(=O)C3(F)CCN(C(=O)C#CC(C)(C)N(C)C)CC3)C(=O)N3CCCC(N3)C(=O)OCC(C)(C)C2)C1
> 10000 nM: IC50 (second compound 0.003 µM) | IC50 (second compound 0.00949 µM) | IC50 (second compound 0.0949 µM)
inactive: viability, T/C [1] 137% | viability, T/C [2] 100% | viability, T/C [3] 84.3% | viability, T/C [4] 70.1% | viability, T/C (second compound 0.000949 µM, first compound 3.16 µM) 55.1% | viability, T/C (second compound 0.000949 µM, first compound 10 µM) 53.1% | viability, T/C [5] 111% | viability, T/C [6] 121% | viability, T/C [7] 85.6% | viability, T/C [8] 73.2% | viability, T/C (second compound 0.003 µM, first compound 3.16 µM) 64.2% | viability, T/C (second compound 0.003 µM, first compound 10 µM) 56.1% | viability, T/C [9] 118% | viability, T/C [10] 94.8% | viability, T/C [11] 89% | viability, T/C [12] 60.1% | viability, T/C (second compound 0.00949 µM, first compound 3.16 µM) 70.7% | viability, T/C (second compound 0.00949 µM, first compound 10 µM) 63.6% | viability, T/C [13] 91.1% | viability, T/C [14] 126% | viability, T/C [15] 69.1% | viability, T/C [16] 59.6% | viability, T/C (second compound 0.03 µM, first compound 3.16 µM) 68.6% | viability, T/C (second compound 0.03 µM, first compound 10 µM) 48% | viability, T/C [17] 122% | viability, T/C [18] 99% | viability, T/C [19] 79.6% | viability, T/C [20] 56.7% | viability, T/C (second compound 0.0949 µM, first compound 3.16 µM) 60.4% | viability, T/C (second compound 0.0949 µM, first compound 10 µM) 58.8% | viability, T/C [21] 131% | viability, T/C [22] 98% | viability, T/C [23] 71.6% | viability, T/C [24] 46.8% | viability, T/C (second compound 0.3 µM, first compound 3.16 µM) 48.1% | viability, T/C (second compound 0.3 µM, first compound 10 µM) 46.1%
10000 nM: IC50 (second compound 0.03 µM)
5930 nM: IC50 (second compound 0.000949 µM)
1510 nM: IC50 (second compound 0.3 µM)
